# US10364256B2 (GlaxoSmithKline Intellectual Property Development Limited, priority 2015, dated 2019)
# Read-outs that look alike come from different tables or passages of the source.
# Tests used:
# [1] = system: NQO1 specific enzyme activity in BEAS-2B cells (marker for NRF2 activation); assay: BEAS-2B NQO1 MTT Assay; type: cell-based; conditions: Homo sapiens, compound incubated 48 hours, read-out: EC50 (NQO1 specific enzyme activity induction)
# Summary of the method: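 BEAS-2B cells treated with compound for 48 h at 37 °C, then lysed; NQO1 activity in lysates measured kinetically by MTT reduction at A570 over 30 min. pEC50 from 3-parameter fit of ΔOD/min versus log concentration; lysate also taken for Cell Titer Glo.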
# [2] = target: T1, Keap1 Kelch domain (321-609) / TAMRA-labeled 16mer NRF2 peptide (ETGE motif) (Homo sapiens, UniProt Q14145); assay: NRF2-Keap1 FP Assay (Keap1 Kelch fluorescence polarization); type: binding; conditions: 20 nM Keap1 (321-609), 8 nM Tamra labeled peptide
# T1 construct: the Kelch domain (321-609) of Keap1 is used
# T1 sequence (Q14145 321-609): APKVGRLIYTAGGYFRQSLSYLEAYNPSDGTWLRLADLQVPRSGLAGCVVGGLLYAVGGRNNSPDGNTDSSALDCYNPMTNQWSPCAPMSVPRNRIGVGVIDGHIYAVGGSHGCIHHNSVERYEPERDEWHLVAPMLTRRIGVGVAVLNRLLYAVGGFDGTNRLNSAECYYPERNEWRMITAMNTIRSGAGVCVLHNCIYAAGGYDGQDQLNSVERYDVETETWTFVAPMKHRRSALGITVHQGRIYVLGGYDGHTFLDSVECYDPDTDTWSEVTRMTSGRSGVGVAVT
# Summary of the method: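 Compound dilutions (3-fold) were incubated 1 hr at room temperature with 20 nM Keap1 Kelch (321-609) and 8 nM TAMRA-labeled ETGE 16mer peptide. Buffer was 50 mM Tris pH 8.0, 100 mM NaCl, 5 mM MgCl2, 1 mM DTT, 2 mM CHAPS, 0.005% BSA. Fluorescence polarization (mP) was normalized to controls and fitted with a four-parameter equation to give pIC50.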
# [3] = target: T2, full length Keap1 protein / full length NRF2 protein (Homo sapiens, UniProt Q14145); assay: NRF2-Keap1 TR-FRET Assay; type: binding; conditions: 25 nM Keap1-FlagHis and 50 nM biotin-NRF2 added
# T2 construct: full length NRF2 protein and full length Keap1 protein (Keap1 exists a dimer) are used; His
# T2 sequence (Q14145 whole entry): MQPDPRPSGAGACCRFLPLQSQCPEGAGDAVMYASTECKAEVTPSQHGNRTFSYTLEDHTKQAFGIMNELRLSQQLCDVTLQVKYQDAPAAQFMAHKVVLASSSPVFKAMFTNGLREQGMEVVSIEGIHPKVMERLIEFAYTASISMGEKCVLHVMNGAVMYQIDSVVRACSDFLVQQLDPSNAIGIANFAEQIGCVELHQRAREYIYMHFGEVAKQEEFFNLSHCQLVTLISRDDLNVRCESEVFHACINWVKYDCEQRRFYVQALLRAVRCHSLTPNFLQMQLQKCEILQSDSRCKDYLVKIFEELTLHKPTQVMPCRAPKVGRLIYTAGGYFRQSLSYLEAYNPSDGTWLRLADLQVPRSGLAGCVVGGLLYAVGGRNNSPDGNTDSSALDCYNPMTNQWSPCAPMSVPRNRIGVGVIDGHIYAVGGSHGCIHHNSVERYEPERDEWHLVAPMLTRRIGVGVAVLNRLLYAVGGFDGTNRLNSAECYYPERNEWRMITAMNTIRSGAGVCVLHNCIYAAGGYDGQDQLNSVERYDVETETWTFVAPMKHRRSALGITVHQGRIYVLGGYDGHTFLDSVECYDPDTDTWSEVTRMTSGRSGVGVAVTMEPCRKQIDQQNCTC
# Description: In the NRF2-Keap1 TR-FRET (time-resolved fluorescence resonance energy transfer) assay, full length NRF2 protein and full length Keap1 protein (Keap1 exists a dimer) are used. The assay detects the ability of compound to displace the binding of FlagHis-tagged Keap1 with biotinylated, Avi-tagged NRF2 protein. Biotin-NRF2 binds to streptavidin-europium (a component of the detection mix) and Keap1-FlagHis is recognized by anti-Flag APC (allophycocyanin) antibody (also a component of the detection mix). If binding occurs between the two proteins, there will be an energy transfer from the Eu+3 (donor) at 615 nm to the APC (acceptor) at 665 nm. A potential Keap1 inhibitor will cause a reduction in the TR-FRET signal by interfering with the binding of Keap1 to NRF2.
# One hundred nanoliters of 100× compound dose response curves (serial 3-fold dilutions) in DMSO are stamped using an Echo liquid handling system (Labcyte) into 384-well, low volume, black assay plates (Greiner, #784076), with DMSO in columns 6 and 18. The top concentration of compound is located in columns 1 and 13. All reagents are diluted in assay buffer (50 mM Tris, pH 8.0, 5 mM MgCl2, 100 mM NaCl, 0.005% BSA, 1 mM DTT, and 2 mM CHAPS). The BSA, DTT, and CHAPS are added to the assay buffer on the day of assay. Using a Multidrop Combi (Thermo Electron Corporation) equipped with a metal tip dispenser, 5 ul of 25 nM Keap1-FlagHis protein is added to all wells of the compound plate, with the exception of the wells in column 18. Wells in column 18 receive 5 ul of assay buffer instead. Plates are centrifuged at 500 rpm for 1 minute, covered with a plate lid, and incubated at 37° C. for 2.25 hours. Plates are then removed from the incubator and allowed to cool to RT for 15 minutes. Five microliters of 50 nM biotin-NRF2 protein is then added to all wells of the plates and the plates are spun at 500 rpm for 1 minute, followed by incubating at 4° C. for 1.25 hours. The plates are then allowed to warm to RT for 15 minutes, followed by the addition of 10 ul of detection mix (1 nM Streptavidin Eu+ W1024 and 5 ug/ml mouse anti-DYKDDDDK IgG conjugated to SureLight APC antibody; both from Columbia Biosciences) to all wells. Plates are spun at 500 rpm for 1 minute, incubated for 1 hour at RT, and read on an Envision plate reader using a 320 nm excitation filter and 615 nm and 665 nm emission filters. Compound response (% inhibition) and potency (pIC50) are calculated based on the ratio of the two emissions (665 nm/615 nm) and then the transformed data is normalized against controls in the assay (control 1=1% DMSO in the presence of NRF2 and Keap1 protein and control 2=1% DMSO in the absence of protein). Data analysis is handled using the software package Abase XE (Surrey, United Kingdom). The % inhibition values are calculated from the ratio (transformed) data by the equation: 100−(100*(compound response−average control 2)/(average control 1−average control2)). For calculation of pIC50s, Abase XE uses a four parameter equation. pIC50 is the negative log of the IC50.
IC50 [2],IC50 [3],Structure (SMILES),"EC50 ([1]; BEAS-2B, 48 h)",EC50 [1]
10 to 100 nM,10 to 100 nM,"CCC[C@@H]1CCCCN1C(=O)c1cc(F)cc(-c2cccc(-n3ncc(C(=O)O)c3C3CC3c3cn(C)nn3)c2)c1 (stereo partly drawn) [Example 198, 1-(3′-Fluoro-5′-((R)-2-propylpiperidine-1-carbonyl)-[1,1′-biphenyl]-3-yl)-5-(2-(1-methyl-1H-1,2,3-triazol-4-yl)cyclopropyl)-1H-pyrazole-4-carboxylic acid]",100 to 1000 nM,–
100 to 1000 nM,100 to 1000 nM,"CCC[C@@H]1CCCCN1C(=O)c1cccc(-c2cc(C)cc(-n3ncc(C(=O)O)c3[C@H]3C[C@@H]3c3cn(C)nn3)c2)c1 (single isomer, unassigned) [Example 156]",100 to 1000 nM,–
1000 to 10000 nM,10000 to 100000 nM,"CC(=O)N[C@@H]1CC[C@H](c2c(C(=O)O)cnn2-c2cccc(-c3cccc(OC(C)C)c3F)c2)C1 (racemic) [Example 13, 5-[(cis)-3-Acetamidocyclopentyl]-1-{3-[2-fluoro-3-(propan-2-yloxy)phenyl]phenyl}-1H-pyrazole-4-carboxylic Acid]",–,1000 to 10000 nM
100 to 1000 nM,1000 to 10000 nM,"O=C(O)c1cnn(-c2cccc(-c3cccc(C(=O)N4CCCCC4)c3F)c2)c1C1CC1 [Example 20, 5-Cyclopropyl-1-{3-[2-fluoro-3-(piperidine-1-carbonyl)phenyl]phenyl}-1H-pyrazole-4-carboxylic Acid]",–,1000 to 10000 nM
10 to 100 nM,100 to 1000 nM,"COC(c1cccc(-c2cccc(-n3ncc(C(=O)O)c3C3CC3c3cn(C)nn3)c2)c1)C(C)C (stereo not drawn) [Example 184, 1-(3′-(1-Methoxy-2-methylpropyl)-[1,1′-biphenyl]-3-yl)-5-(2-(1-methyl-1H-1,2,3-triazol-4-yl)cyclopropyl)-1H-pyrazole-4-carboxylic acid]",–,100 to 1000 nM
100 to 1000 nM,1000 to 10000 nM,"CCn1cc(C2CC2c2c(C(=O)O)cnn2-c2cccc(-c3cccc(C(=O)N(C)C)c3)c2)nn1 (stereo not drawn) [Example 158, 1-(3′-(dimethylcarbamoyl)-[1,1′-biphenyl]-3-yl)-5-(2-(1-ethyl-1H-1,2,3-triazol-4-yl)cyclopropyl)-1H-pyrazole-4-carboxylic Acid]",–,1000 to 10000 nM
100 to 1000 nM,1000 to 10000 nM,"Cn1cc([C@H]2C[C@@H]2c2c(C(=O)O)cnn2-c2cccc(-c3cccc(OCc4cncnc4)c3)c2)nn1 (racemic) [Example 236, 5-((1,2-trans)-2-(1-Methyl-1H-1,2,3-triazol-4-yl)cyclopropyl)-1-(3′-(pyrimidin-5-ylmethoxy)-[1,1′-bipheny1]-3-yl)-1H-pyrazole-4-carboxylic acid]",–,1000 to 10000 nM
1000 to 10000 nM,10000 to 100000 nM,"Cn1cnc(C2CC2c2c(C(=O)O)cnn2-c2cccc(-c3cccc(OCC4CCCCC4)c3)c2)c1 (stereo not drawn) [Example 190, 1-(3′-(cyclohexylmethoxy)-[1,1′-biphenyl]-3-yl)-5-(2-(1-methyl-1H-imidazol-4-yl)cyclopropyl)-1H-pyrazole-4-carboxylic acid]",–,1000 to 10000 nM
100 to 1000 nM,1000 to 10000 nM,"O=C(O)c1cnn(-c2cccc(-c3cccc(-n4ncc5c4C(C4CC4)CC5)c3)c2)c1C1CC1 (stereo not drawn) [Example 207, 5-Cyclopropyl-1-(3′-(6-cyclopropyl-5,6-dihydrocyclopenta[c]pyrazol-1(4H)-yl)-[1,1′-biphenyl]-3-yl)-1H-pyrazole-4-carboxylic Acid]",–,1000 to 10000 nM
100 to 1000 nM,1000 to 10000 nM,"CN(CC1CC1)C(=O)c1cccc(-c2cccc(-n3ncc(C(=O)O)c3C(F)(F)F)c2)c1F [Example 47, 1-(3-{3-[(cyclopropylmethyl)(methyl)carbamoyl]-2-fluorophenyl}phenyl)-5-(trifluoromethyl)-1H-pyrazole-4-carboxylic Acid]",–,1000 to 10000 nM
